The values that follow come from ChEMBL document CHEMBL2218064, “Structure-activity relationship data for chemical series of antagonists of the P2X7 receptor (Supplementary Bioactivity Data for publication CHEMBL1157114)”.

The structures appear in SMILES notation.

For the assay, the target named is T1, P2X purinoceptor 7 (Homo sapiens, UniProt Q99572).
T1 sequence (Q99572 whole entry): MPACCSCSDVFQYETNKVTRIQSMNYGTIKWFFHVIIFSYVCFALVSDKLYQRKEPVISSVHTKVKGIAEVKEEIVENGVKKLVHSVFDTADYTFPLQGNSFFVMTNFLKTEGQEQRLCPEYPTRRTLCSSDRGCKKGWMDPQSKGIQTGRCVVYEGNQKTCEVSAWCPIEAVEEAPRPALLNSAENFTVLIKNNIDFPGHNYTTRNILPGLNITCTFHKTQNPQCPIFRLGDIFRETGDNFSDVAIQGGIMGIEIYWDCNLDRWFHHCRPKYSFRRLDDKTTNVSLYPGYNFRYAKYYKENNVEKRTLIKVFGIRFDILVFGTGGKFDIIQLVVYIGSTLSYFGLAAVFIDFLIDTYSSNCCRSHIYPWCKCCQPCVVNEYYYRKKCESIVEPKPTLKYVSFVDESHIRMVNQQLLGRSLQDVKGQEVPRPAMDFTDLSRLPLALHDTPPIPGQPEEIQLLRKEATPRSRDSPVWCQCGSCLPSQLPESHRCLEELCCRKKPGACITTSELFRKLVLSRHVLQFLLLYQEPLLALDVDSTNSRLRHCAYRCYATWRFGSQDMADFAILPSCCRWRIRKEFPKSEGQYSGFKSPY
Put plainly: SUPPLEMENTARY: Inhibition of human P2X7 receptor assessed as inhibition of ethidium bromide accumulation. Same assay as CHEMBL1103860.
A word on the IC50: it is the midpoint of a concentration-inhibition curve. For the compound `Cc1cccc(C)c1CNC(=O)Cc1c(C)nn(-c2ccccc2)c1C`, the 50% inhibitory concentration (IC50) is 63.1 nM.

Take `Cc1c(CC(=O)NCc2ccc(F)cc2Cl)cnn1-c1ccc(F)cc1`: the IC50 is 251 nM.

For `Cc1nn(-c2ncccc2C(F)(F)F)c(C)c1CC(=O)NCc1ccc(F)cc1Cl`, the IC50 was 501 nM.

For `Cc1nn(C2CCN(Cc3ccccc3)CC2)c(C)c1CC(=O)NCc1ccc(F)cc1Cl`, the 50% inhibitory concentration (IC50) was 63.1 nM.

As to `Cc1nn(C(C)C)c(C)c1CC(=O)NCc1ccc(F)cc1Cl`, the 50% inhibitory concentration (IC50) is 631 nM.

Consider `Cc1nn(CC2CCCCC2)c(C)c1CC(=O)NCc1ccc(F)cc1Cl`, for which the IC50 was 631 nM.

`CCn1nc(C)c(CC(=O)NCc2ccc(F)cc2Cl)c1C`: the half-inhibitory concentration (IC50) was 200 nM.

In the case of `Cc1nn(CC(C)(C)C)c(C)c1CC(=O)NCc1ccc(F)cc1Cl`, the IC50 is 100 nM.

For `Cc1nn(Cc2ccccc2N(C)C)c(C)c1CC(=O)NCc1ccc(F)cc1Cl`, the IC50 was 251 nM.

Take `Cc1nn(C2CCN(C)CC2)c(C)c1CC(=O)NCc1ccc(F)cc1Cl`: the IC50 was 126 nM.

In the case of `Cc1nn(CC(F)(F)F)c(C)c1CC(=O)NCc1ccc(F)cc1Cl`, the half-maximal inhibitory concentration (IC50) was 316 nM.

On to `Cc1nn(Cc2nc3ccccc3s2)c(C)c1CC(=O)NCc1ccc(F)cc1Cl`, for which the IC50 is 398 nM.

With `Cc1nn(-c2ccc(C(=O)NCc3ccccn3)cc2)c(C)c1CC(=O)NCc1ccc(F)cc1Cl`, the IC50 is 15.8 nM.

For `Cc1nn(CC(C)C)c(C)c1CC(=O)NCc1ccc(F)cc1Cl`, the half-maximal inhibitory concentration (IC50) is 251 nM.

As to `Cc1nn(C2CCCC2)c(C)c1CC(=O)NCc1ccc(F)cc1Cl`, the IC50 was 501 nM.

With `Cc1nn(C2CCOCC2)c(C)c1CC(=O)NCc1ccc(F)cc1Cl`, the IC50 was 1260 nM.

On to `O=C(Cc1cnn(-c2ccc(F)cc2)c1C(F)(F)F)NCc1ccc(F)cc1Cl`, for which the IC50 is 1260 nM.

Turning to `Cc1ccc(-n2nc(C)c(CC(=O)NCc3ccc(F)cc3Cl)c2C)nn1`, the 50% inhibitory concentration (IC50) was 631 nM.

As to `Cc1nn(CC(=O)O)c(C)c1CC(=O)NCc1ccc(F)cc1Cl`, the IC50 is 1260 nM.

Take `CCN(CC)C(=O)Cn1nc(C)c(CC(=O)NCc2ccc(F)cc2Cl)c1C`: the half-inhibitory concentration (IC50) is 501 nM.

On to `Cc1nn(Cc2ccncc2)c(C)c1CC(=O)NCc1ccc(F)cc1Cl`, for which the IC50 is 316 nM.

`Cc1cc(-n2nc(C)c(CC(=O)NCc3ccc(F)cc3Cl)c2C)nc(C)n1`: the IC50 was 200 nM.

On to `C=C(C)CN1C(=O)CC[C@H]1C(=O)NCc1ccc(F)cc1Cl`, for which the 50% inhibitory concentration (IC50) was 398 nM.

Consider `Cc1ccc(-n2nc(C)c(CC(=O)NCc3ccc(F)cc3Cl)c2C)cn1`, for which the concentration for half-maximal inhibition (IC50) was 251 nM.

In the case of `Cc1nn(Cc2ccccn2)c(C)c1CC(=O)NCc1ccc(F)cc1Cl`, the half-maximal inhibitory concentration (IC50) was 398 nM.

As to `Cc1nn(C(C)(C)C)c(C)c1CC(=O)NCc1ccc(F)cc1Cl`, the IC50 is 398 nM.

For `Cc1nn(CCN2CCOCC2)c(C)c1CC(=O)NCc1ccc(F)cc1Cl`, the IC50 was 251 nM.

Turning to `Cc1ccc(-n2nc(C)c(CC(=O)NCc3ccc(F)cc3Cl)c2C)c(C)n1`, the IC50 was 398 nM.

As for `Cc1ccncc1-n1nc(C)c(CC(=O)NCc2ccc(F)cc2Cl)c1C`, the IC50 is 398 nM.

With `Cc1cc(-n2nc(C)c(CC(=O)NCc3ccc(F)cc3Cl)c2C)ccn1`, the half-maximal inhibitory concentration (IC50) is 316 nM.

For `CCN(CC)CCn1nc(C)c(CC(=O)NCc2ccc(F)cc2Cl)c1C`, the 50% inhibitory concentration (IC50) is 200 nM.

Turning to `Cc1nn(CCN2CCCCC2)c(C)c1CC(=O)NCc1ccc(F)cc1Cl`, the concentration for half-maximal inhibition (IC50) is 50.1 nM.

For the compound `Cc1nn(CCN2CCCC2)c(C)c1CC(=O)NCc1ccc(F)cc1Cl`, the IC50 is 126 nM.

With `Cc1ccccc1-n1cc(CC(=O)NCc2ccc(F)cc2Cl)cn1`, the half-inhibitory concentration (IC50) was 631 nM.

As to `CCc1ccccc1-n1cc(CC(=O)NCc2ccc(F)cc2Cl)cn1`, the IC50 was 251 nM.

On to `Cc1nn(-c2ccccc2)c(C)c1CC(=O)NCc1cccc(Cl)c1C`, for which the IC50 is 31.6 nM.

On to `Cc1nn(-c2ccccc2)c(C)c1CC(=O)NCc1ccc(F)c(F)c1`, for which the IC50 is 251 nM.

Turning to `Cc1nn(-c2ccccc2)c(C)c1CC(=O)NCc1ccc(F)c(F)c1F`, the IC50 is 63.1 nM.

As to `Cc1ccc(C)c(CNC(=O)Cc2c(C)nn(-c3ccccc3)c2C)c1`, the IC50 was 794 nM.

On to `Cc1ccc(Cl)cc1CNC(=O)Cc1c(C)nn(-c2ccccc2)c1C`, for which the concentration for half-maximal inhibition (IC50) is 126 nM.

With `Cc1cccc(Cl)c1CNC(=O)Cc1c(C)nn(-c2ccccc2)c1C`, the IC50 is 39.8 nM.

As for `Cc1nn(CCNCC(C)C)c(C)c1CC(=O)NCc1ccc(F)cc1Cl`, the IC50 is 39.8 nM.

With `Cc1ncccc1-n1nc(C)c(CC(=O)NCc2ccc(F)cc2Cl)c1C`, the IC50 was 79.4 nM.

Regarding `Cc1cncc(-n2nc(C)c(CC(=O)NCc3ccc(F)cc3Cl)c2C)c1`, the IC50 is 316 nM.

Regarding `Cc1nn(CCNCCO)c(C)c1CC(=O)NCc1ccc(F)cc1Cl`, the IC50 is 100 nM.

Consider `Cc1nn(CCN(C)CCO)c(C)c1CC(=O)NCc1ccc(F)cc1Cl`, for which the IC50 is 200 nM.

As to `COCCNCCn1nc(C)c(CC(=O)NCc2ccc(F)cc2Cl)c1C`, the IC50 was 126 nM.

Consider `Cc1nn(CCO)c(C)c1CC(=O)NCc1cccc(Cl)c1C`, for which the IC50 is 63.1 nM.

Consider `Cc1nn(CCN)c(C)c1CC(=O)NCc1ccc(F)cc1Cl`, for which the IC50 was 158 nM.

Turning to `COCCn1nc(C)c(CC(=O)NCc2ccc(F)cc2Cl)c1C`, the IC50 is 398 nM.

As for `Cc1nn(-c2ccccc2)c(C)c1CC(=O)NCc1cc(Cl)ccc1F`, the IC50 is 631 nM.

Consider `Cc1nn(CCN2CCOCC2)c(C)c1CC(=O)NCc1cccc(Cl)c1C`, for which the concentration for half-maximal inhibition (IC50) was 126 nM.

Take `Cc1nn(CC(C)(C)O)c(C)c1CC(=O)NCc1ccc(F)cc1Cl`: the IC50 is 316 nM.

Turning to `Cc1nn(CC(C)(C)O)c(C)c1CC(=O)NCc1ccc(F)c(F)c1F`, the 50% inhibitory concentration (IC50) is 794 nM.

Consider `Cc1nn(CC(C)(C)O)c(C)c1CC(=O)NCc1cccc(Cl)c1C`, for which the concentration for half-maximal inhibition (IC50) was 158 nM.

For the compound `Cc1cccc(Cl)c1CNC(=O)Cc1c(C)nn(CC(C)(C)O)c1C`, the 50% inhibitory concentration (IC50) was 200 nM.

As to `CCOc1cccc(-n2cc(CC(=O)NCc3ccc(F)cc3Cl)cn2)n1`, the IC50 was 1260 nM.

Consider `Cc1nn(-c2ncccn2)c(C)c1CC(=O)NCc1ccc(F)c(F)c1F`, for which the half-inhibitory concentration (IC50) was 79.4 nM.

Regarding `O=C(Cc1cnn(CCO)c1C(F)(F)F)NCc1ccc(F)cc1Cl`, the IC50 was 200 nM.

On to `O=C(Cc1cn(CCO)nc1C(F)(F)F)NCc1ccc(F)cc1Cl`, for which the IC50 is 398 nM.

In the case of `O=C(Cc1cn(CCNCCO)nc1C(F)(F)F)NCc1ccc(F)cc1Cl`, the half-maximal inhibitory concentration (IC50) is 631 nM.

Regarding `O=C(Cc1cn(CCNC2CCOCC2)nc1C(F)(F)F)NCc1ccc(F)cc1Cl`, the IC50 is 794 nM.

Consider `O=C(Cc1cnn(-c2ccc(F)cc2)c1Br)NCc1ccc(F)cc1Cl`, for which the IC50 was 398 nM.

Regarding `COc1ccc(-n2nc(C)c(CC(=O)NCc3ccc(F)cc3Cl)c2C)cn1`, the concentration for half-maximal inhibition (IC50) is 251 nM.

Regarding `COc1cncc(-n2nc(C)c(CC(=O)NCc3ccc(F)cc3Cl)c2C)c1`, the half-maximal inhibitory concentration (IC50) is 398 nM.

Turning to `COc1ncccc1-n1nc(C)c(CC(=O)NCc2ccc(F)cc2Cl)c1C`, the IC50 was 251 nM.

For the compound `CN(C)CCn1ncc(CC(=O)NCc2ccc(F)cc2Cl)c1C(F)(F)F`, the half-inhibitory concentration (IC50) was 1260 nM.

Take `O=C(Cc1cnn(CCNC2CCOCC2)c1C(F)(F)F)NCc1ccc(F)cc1Cl`: the IC50 is 1260 nM.

On to `O=C(Cc1cnn(CCN2CCCCC2)c1C(F)(F)F)NCc1ccc(F)cc1Cl`, for which the half-inhibitory concentration (IC50) was 794 nM.

Turning to `COCCNCCn1ncc(CC(=O)NCc2ccc(F)cc2Cl)c1C(F)(F)F`, the IC50 was 794 nM.

Consider `CCN1C(=O)CC[C@H]1C(=O)NCc1ccc(F)c(F)c1F`, for which the IC50 was 158 nM.
